The conditions of data set [1]: in benzene at 0 °C; cited from earlier work. Here is the method:
As expected for an electron-poor azobenzene, all peptides were bistable (TOP271 Fig. 2c, TOP263-270 ESI Fig. 3 ^†). ^¶ ¶All peptides are available for academic use from the Hoffmann-Röder lab upon request. This advantageous trait allows samples to be pre-illuminated prior to application rather than needing constant illumination. […], and because the compounds were bistable, the initial back-relaxation was obtained as a linear function from the first 30 min after ceasing illumination. P ...

Data set [2] relates to pancreatic beta cells in islets of Langerhans. The data set can be described thus: Calcium imaging of beta cells in intact islets of Langerhans. It counts as cell-based, CD1 mice. The conditions noted are these: for effect on amplitude of intracellular Ca2+ fluxes in beta cells, in words: intact islets, 8 mM glucose, ANP 0.1–100 nM, TOP271 isomers 1–100 nM, n = 4–6 islets for each concentration. The protocol:
Reversibility could be achieved by applying cis-TOP271 and then illuminating with blue light (λ = 458–482 nm) to induce trans-isomerisation (Fig. 4i and j). Restoration of beta cell function was only partial (Fig. 4j), however, possibly due to cGMP-mediated sequestration of Ca^2+ into internal stores such as the endoplasmic reticulum.[61] […]
CD1 mice were maintained in a specific pathogen-free facility under a 12 h light–dark cycle with ad libitum access to water and food. Animals were euthanized by cervical dislocation and islets isolated using collagenase digestion. Islets were cultured overnight in Roswell Park Memorial Institute (RPMI) medium supplemented with 10% foetal calf serum and 100 U/mL penicillin and 100 µg/mL streptomycin. No randomization was used for animal experimentation, since mice were only used as tissue donors.
Experimental protocols were approved by the University of Birmingham's Animal Welfare and Ethical Review Body (AWERB) and carried out in accordance with the Animals (Scientific Procedures) Act 1986 of the United Kingdom.
Islets were loaded for 40 min with Fluo8 (AAT Bioquest, Sunnyvale, CA, USA), before imaging using a Crest X-Light spinning disk head coupled to a Nikon Ti-E automated base and 10 x/0.4 NA objective. Pulsed excitation was delivered at λ = 458–482 nm (400 ms exposure; 0.33 Hz) via a Lumencor Spectra X Light Engine, and emitted signals detected at λ = 500–550 nm using a Photometrics Evolve Delta 512 EMCCD.
Illumination to induce photoswitching was performed using either continuous exposure to λ = 458–482 nm or λ = 382–407 nm. In all cases, HEPES-bicarbonate buffer was used, containing in mM: 120 NaCl, 4.8 KCl, 24 NaHCO3, 0.5 Na2HPO4, 5 HEPES, 2.5 CaCl2, 1.2 MgCl2, 8 D-glucose. Ca2+ traces were normalized as F/Fmin (F = fluorescence at any given timepoint; Fmin = minimum fluorescence) and relative change in this value over time denoted by a scale bar.
Non-multifactorial comparisons were made using Student’s t-test. Multifactorial comparisons were prepared using one-way ANOVA. Log-transformed concentration-response curves were fitted using non-linear regression and the Hill equation. All analyses were conducted using Graphpad Prism (Graphpad software) and IgorPro (WaveMetrics software), and results deemed significant * at P<0.05 or ** at P<0.01.
(In general: A change in cytosolic calcium serves as a functional read-out for many receptors and channels.)

The conditions of data set [3]: ex vivo or in vivo, depending on cell environment or azoreductase expression; cited from earlier work. The source says: Acting via the NPR-A receptor to generate cGMP, TOP271 allows the reversible photocontrol of contraction/dilation in aortic tissue, as well as Ca^2+ oscillations in rodent islets of Langerhans. Although photodependent cGMP synthesis was described earlier, these approaches rely on the genetically-encoded photosensitive proteins EROS[64],[65] or BeCyclOps,[66],[67] whereas TOP271 allows unprecedented photocontrolled cGMP synthesis in nativ ...

The test system of data set [4] is murine thoracic aortic rings. The data set can be described thus: Aortic tensometry, pre-constricted aortic rings. More on the design: species or system C57BL/6 mice. The conditions noted are these: for vasodilation of pre-constricted aortic rings, in words: rings pre-contracted with 1 µM phenylephrine, 200 μM L-NAME and 3 μM diclofenac present, n = 6 aortic rings from 4 animals. The protocol: We next sought to address whether TOP271 would allow the optical control of cGMP-dependent processes in a physiologically relevant system, i.e. the aortic ring preparation. […] Accordingly, we predicted that TOP271 would allow reversible, light-controlled vasoactive responses, with cis-TOP271 being the stronger effector at specific concentrations. […] Although this concentration–response indicated a significant difference in receptor activation for 100 nM TOP271, we decided to use 400 nM TOP271 to trigger a stronger isomer-dependent vasodilation.
Fig. 3 TOP271 allows photocontrol of aortic tissue. (a) Concentration-response curves for trans- and cis-TOP271. (b) Aortic relaxation for cycles in (d) and (e). […] (d, e) Reversible photocontrol over aortic tension by application of trans-TOP271 (d) and cis-TOP271 (e) with UV-/blue and blue/UV-light (365 and 460 nm) cycles, respectively. All experiments were conducted in the presence of 200 μM N-ω-nitro-L-arginine methyl ester (L-NAME) and 3 μM diclofenac, which were used to block the vascular relaxants nitric oxide and prostacyclin, respectively. PE = phenylephrine was used for initial vasoconstriction, IBMX = 3-iso-butyl-1-methylxanthine was used to induce complete muscular relaxation as an end point control. (n = 6 aortic rings from 4 animals) (*P < 0.05, **P < 0.01, repeated measures Student's t-test). Values represent the mean ± SEM. […]
Murine thoracic aortic rings were mounted in a myograph as described recently16. In detail, thoracic aortas from C57BL/6 mice were explanted and cut into rings and mounted on fixed segment support pins in two four-chamber Myograph 610 (Danish Myo Technology, Aarhus, Denmark) containing 5 ml of Krebs–Henseleit solution (containing […]
glucose, pH 7.4), bubbled with 95% O2 and 5% CO2. Resting tension was set to 5 mN in the presence of Diclofenac (3 µM) and N-nitro-L-arginine methyl ester (L-NAME) (200 µM). After equilibration (45 minutes at 37 °C), rings were pre-contracted with 1 µM phenylephrine (PE). Since aortic ring myography is sensitive to temperature fluctuations, effects of direct and indirect illumination on vasoactivity were determined. […] The vasorelaxing effects of pre-illuminated cis- and dark trans-TOP271 were assessed once a steady plateau was reached. […]
were prepared (10 mM in water), of which an aliquot of TOP271 was either pre-illuminated at λ = 365 nm using a UVP 3UV benchtop UV lamp to obtain the cis-isomer, or kept in the dark to maintain the trans-isomer. […] Read-out was conducted in between illumination cycles as soon as a steady plateau was reached to exclude any light dilational effects. […]

Another data set addresses T1, NPR-A (Homo sapiens, UniProt P16066).
T1 construct: expressed in transfected cells; host or cells: HEK293t cells (DSMZ #305), transiently co-transfected with pCMV5_GC-A and YFP
T1 sequence (P16066 33-1061): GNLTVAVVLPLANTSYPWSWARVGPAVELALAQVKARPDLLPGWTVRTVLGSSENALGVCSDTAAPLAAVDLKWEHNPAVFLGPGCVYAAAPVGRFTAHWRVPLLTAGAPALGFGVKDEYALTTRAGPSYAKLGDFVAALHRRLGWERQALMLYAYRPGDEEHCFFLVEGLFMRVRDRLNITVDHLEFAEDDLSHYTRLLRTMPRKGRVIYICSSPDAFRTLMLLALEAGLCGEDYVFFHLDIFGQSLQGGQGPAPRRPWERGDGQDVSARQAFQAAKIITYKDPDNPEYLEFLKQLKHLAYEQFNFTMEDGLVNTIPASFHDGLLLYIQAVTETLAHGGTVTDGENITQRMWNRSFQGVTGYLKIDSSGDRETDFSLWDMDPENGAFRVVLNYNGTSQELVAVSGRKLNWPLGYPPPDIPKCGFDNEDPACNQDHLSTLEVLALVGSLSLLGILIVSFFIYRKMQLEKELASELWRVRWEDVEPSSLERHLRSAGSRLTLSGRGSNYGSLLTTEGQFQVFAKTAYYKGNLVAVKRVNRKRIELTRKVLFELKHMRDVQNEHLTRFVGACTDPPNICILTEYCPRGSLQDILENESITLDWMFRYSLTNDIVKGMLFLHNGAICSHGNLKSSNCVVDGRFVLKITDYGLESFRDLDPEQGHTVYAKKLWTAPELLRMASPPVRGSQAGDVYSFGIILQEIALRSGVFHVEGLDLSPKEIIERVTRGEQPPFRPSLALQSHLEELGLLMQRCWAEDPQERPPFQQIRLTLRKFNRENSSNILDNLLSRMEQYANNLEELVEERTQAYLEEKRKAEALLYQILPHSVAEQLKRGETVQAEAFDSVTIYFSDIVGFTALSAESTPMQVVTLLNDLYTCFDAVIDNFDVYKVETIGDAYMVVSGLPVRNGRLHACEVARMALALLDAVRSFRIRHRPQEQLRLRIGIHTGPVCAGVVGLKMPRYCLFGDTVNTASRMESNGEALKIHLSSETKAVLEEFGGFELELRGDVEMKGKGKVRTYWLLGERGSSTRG
Nature of the data set: cGMP assay (HTRF) in HEK293T cells transiently transfected with NPR-A. It counts as cell-based. The conditions noted are these: in vitro. For orientation: Time-resolved FRET reads energy transfer from a long-lived donor to a nearby acceptor.

Procedure for NPR-A: To test cGMP synthesis, each peptide was applied as the trans- or cis-isomer by keeping them either in the dark or pre-illuminating with UV light (λ = 365 nm) for 15 minutes, respectively.
cGMP assay in transiently transfected HEK293t cells
HEK293t cells (obtained from the Leibniz-Institute DSMZ, Braunschweig, Germany, #305, regularly mycoplasma tested) were transfected with pCMV5_GC-A 4 and YFP using Lipofectamine 2000® (Life Science, Indianapolis, IN, USA) at >80% confluency in a T25 flask according to the manufacturer’s instructions. After 24 h, cells were checked by means of YFP fluorescence for successful transfection (>70% efficiency), washed once and harvested with 1 mL Hepes-Krebs-Ringer (HKR) buffer (containing in mM: 135 NaCl, 5 KCl, 1 MgSO4, 0.4 K2HPO4, 5.5 D-glucose, 20 HEPES, 1 CaCl2, pH = 7.4) supplemented with PDE inhibitors IBMX (500 µM, Tocris, Bristol, UK, #2840) and Ro
µL of cell solution was pipetted into each well of a 384-well plate (white, flat bottom, Greiner, Frickenhausen, Germany). […] The resulting assays were incubated for 30 min before they were lysed and treated with a cGMP HTRF kit (Cisbio, Codolet, France) according to the manufacturer’s instructions. cGMP levels were read with a Omega platereader (BMG Labtech, Offenburg, Germany) after 1 h of incubation time and normalized according to the cGMP standards. […]

As for `c1ccc(/N=N/c2ccccc2)cc1` [unsubstituted azobenzene, azobenzene], the “k obs thermal relaxation” value in data set [1] is 3.58 × 10^–4 a.u. min^–1.
Take `CC[C@H](C)[C@@H]1NC(=O)[C@H](CCCNC(=N)N)NC(=O)[C@H](CC(=O)O)NC(=O)[C@H](CCSC)NC(=O)[C@H](CCCNC(=N)N)NC(=O)CNC(=O)CNC(=O)[C@H](Cc2ccccc2)NC(=O)[C@@H](NC(=O)[C@H](CO)NC(=O)[C@H](CO)NC(=O)[C@H](CCCNC(=N)N)NC(=O)[C@H](CCCNC(=N)N)NC(=O)[C@H](CC(C)C)NC(=O)[C@@H](N)CO)CSSC[C@@H](C(=O)N[C@@H](CC(N)=O)C(=O)N[C@@H](CO)C(=O)N[C@@H](Cc2ccccc2)C(=O)N[C@@H](CCCNC(=N)N)C(=O)N[C@@H](Cc2ccc(O)cc2)C(=O)O)NC(=O)CNC(=O)[C@H](CC(C)C)NC(=O)CNC(=O)[C@H](CO)NC(=O)[C@H](CCC(N)=O)NC(=O)[C@H](C)NC(=O)CNC1=O` [ANP, human atrial natriuretic peptide, reference compound]: the “effect on amplitude of intracellular Ca2+ fluxes in beta cells, in words” value (from here on “effect on amplitude”) in data set [2] is “suppressed beta cell function”. In data set [2] (low (0.1 nm) but not high (10 nm) concentration, n = 5-7 islets for each concentration), the “pancreatic beta cell Ca2+ spiking frequency” value is “stimulate increases”.
On to `CCN(CC)c1ccc(/N=N/c2ccc(S(=O)(=O)NC(=O)NC3CCCCC3)cc2)cc1` [JB253], for which the “degradation of the diazene unit” value in data set [3] was “not the case”.
Turning to `CC[C@H](C)[C@@H]1NC(=O)[C@H](CCCNC(=N)N)NC(=O)[C@H](CC(=O)O)NC(=O)[C@H](CCSC)NC(=O)[C@H](CCCNC(=N)N)NC(=O)CNC(=O)CNC(=O)[C@H](Cc2ccccc2)NC(=O)[C@@H](NC(=O)[C@H](CO)NC(=O)[C@H](CO)NC(=O)[C@H](CCCNC(=N)N)NC(=O)[C@H](CCCNC(=N)N)NC(=O)[C@H](CC(C)C)NC(=O)[C@@H](N)CO)CSSC[C@@H](C(=O)N[C@@H](CC(N)=O)C(=O)N[C@@H](CO)C(=O)N[C@@H](Cc2ccccc2)C(=O)N[C@@H](CCCNC(=N)N)C(=O)N[C@@H](Cc2ccc(O)cc2)C(=O)O)NC(=O)Cc2cccc(c2)/N=N\c2cccc(c2)CNC(=O)[C@H](CCC(N)=O)NC(=O)[C@H](C)NC(=O)CNC1=O` [cis-TOP271], in data set [4] (400 nM, aortic rings), the “speed of the initial vasodilation, cis- compared to trans-TOP271” value worked out at 1.5 ×. Moreover, the “vasodilation of pre-constricted aortic rings, in words” value in data set [4] (400 nM) is listed as “potent vasodilation”. In addition, in data set [4] (pre-illuminated isomers, 100 nM to 1 μM range, pre-constricted aortic rings), the “vasodilation concentration-response, cis- versus trans-isomer” value is listed as “increased potency”. Besides, the “restoration of beta cell function after blue light (458–482 nm) trans-isomerisation” value in data set [2] (cis-TOP271 applied, then blue light, n = 5 islets) is recorded as “only partial”. The “effect on amplitude” value in data set [2] is reported as “robustly suppressed Ca^2+ rises”. Also, the “fold higher potency of cis- over trans-isomer for cGMP generation” value on NPR-A amounted to 4 fold.
On to `CC[C@H](C)[C@@H]1NC(=O)[C@H](CCCNC(=N)N)NC(=O)[C@H](CC(=O)O)NC(=O)[C@H](CCSC)NC(=O)[C@H](CCCNC(=N)N)NC(=O)CNC(=O)CNC(=O)[C@H](Cc2ccccc2)NC(=O)[C@@H](NC(=O)[C@H](CO)NC(=O)[C@H](CO)NC(=O)[C@H](CCCNC(=N)N)NC(=O)[C@H](CCCNC(=N)N)NC(=O)[C@H](CC(C)C)NC(=O)[C@@H](N)CO)CSSC[C@@H](C(=O)N[C@@H](CC(N)=O)C(=O)N[C@@H](CO)C(=O)N[C@@H](Cc2ccccc2)C(=O)N[C@@H](CCCNC(=N)N)C(=O)N[C@@H](Cc2ccc(O)cc2)C(=O)O)NC(=O)Cc2cccc(c2)/N=N/c2cccc(c2)CNC(=O)[C@H](CCC(N)=O)NC(=O)[C@H](C)NC(=O)CNC1=O` [trans-TOP271], for which the “vasodilation of pre-constricted aortic rings, in words” value in data set [4] (400 nM) is given as “strong vasodilation”. Also, the “effect on amplitude” value in data set [2] was “only a small decrease”.

Values taken from article PMC5471452, “Optical control of a receptor-linked guanylyl cyclase using a photoswitchable peptidic hormone” (Chemical Science, 2017).
